Results reported in US12371421B2, “Solid forms of a PARP7 inhibitor” (Ribon Therapeutics, Inc., priority 2019, dated 2025).

Columns and labels:
NCI-H1944 = assay: Cancer cell growth inhibition (CellTiter-Glo); format: cell-based; conditions: Homo sapiens; NCI-H1944, lung adenocarcinoma; 144 hours
Protocol: (§1) Cells were plated into 384-well plates at a pre-specified density in fetal bovine serum-containing media. Cells were treated with compound or vehicle (DMSO) 24 hrs later, and a day zero plate was collected for analysis. Test compound plates were incubated continuously for 144 hours before cells and cell growth was assessed using a luminescent cell viability assay (CellTiter-Glo, Promega). The GI50 was determined by correcting for the cell count at time zero (time of treatment) and plotting data as percent growth relative to vehicle-treated cells.

TE-11 = assay: Cancer cell growth inhibition (CellTiter-Glo); format: cell-based; conditions: Homo sapiens; TE-11, esophageal squamous cell carcinoma; 144 hours
Protocol: as §1

MDA-MB-468 = assay: Cancer cell growth inhibition (CellTiter-Glo); format: cell-based; conditions: Homo sapiens; MDA-MB-468, breast adenocarcinoma; 144 hours
Protocol: as §1

NCI-H1963 = assay: Cancer cell growth inhibition (CellTiter-Glo); format: cell-based; conditions: Homo sapiens; NCI-H1963, small cell lung carcinoma; 144 hours
Protocol: as §1

T84 = assay: Cancer cell growth inhibition (CellTiter-Glo); format: cell-based; conditions: Homo sapiens; T84, colon adenocarcinoma; 144 hours
Protocol: as §1

SCaBER = assay: Cancer cell growth inhibition (CellTiter-Glo); format: cell-based; conditions: Homo sapiens, bladder squamous cell carcinoma, 144 hours
Protocol: as §1

YD-10B = assay: Cancer cell growth inhibition (CellTiter-Glo); format: cell-based; conditions: tongue squamous cell carcinoma, 144 hours
Protocol: as §1

NCI-H2444 = assay: Cancer cell growth inhibition (CellTiter-Glo); format: cell-based; conditions: Homo sapiens; NCI-H2444, non-small cell lung carcinoma; 144 hours
Protocol: as §1

NCI-H2009 = assay: Cancer cell growth inhibition (CellTiter-Glo); format: cell-based; conditions: Homo sapiens; NCI-H2009, lung adenocarcinoma; 144 hours
Protocol: as §1

KALS-1 = assay: Cancer cell growth inhibition (CellTiter-Glo); format: cell-based; conditions: Homo sapiens; KALS-1, glioblastoma; 144 hours
Protocol: as §1

AGS = assay: Cancer cell growth inhibition (CellTiter-Glo); format: cell-based; conditions: Homo sapiens, gastric adenocarcinoma, 144 hours
Protocol: as §1

NCI-H1437 = assay: Cancer cell growth inhibition (CellTiter-Glo); format: cell-based; conditions: Homo sapiens; NCI-H1437, lung adenocarcinoma; 144 hours
Protocol: as §1

MSTO-211H = assay: Cancer cell growth inhibition (CellTiter-Glo); format: cell-based; conditions: Homo sapiens, biphasic mesothelioma, 144 hours
Protocol: as §1

HT-1080 = assay: Cancer cell growth inhibition (CellTiter-Glo); format: cell-based; conditions: Homo sapiens; HT-1080, fibrosarcoma; 144 hours
Protocol: as §1

HCC1954 = assay: Cancer cell growth inhibition (CellTiter-Glo); format: cell-based; conditions: Homo sapiens; HCC1954, ductal breast carcinoma; 144 hours
Protocol: as §1

TUHR10TKB = assay: Cancer cell growth inhibition (CellTiter-Glo); format: cell-based; conditions: renal cell carcinoma, 144 hours
Protocol: as §1

H4 = assay: Cancer cell growth inhibition (CellTiter-Glo); format: cell-based; conditions: H4, neuroglioma; 144 hours
Protocol: as §1

NCI-H2347 = assay: Cancer cell growth inhibition (CellTiter-Glo); format: cell-based; conditions: Homo sapiens; NCI-H2347, lung adenocarcinoma; 144 hours
Protocol: as §1

NCI-H647 = assay: Cancer cell growth inhibition (CellTiter-Glo); format: cell-based; conditions: Homo sapiens; NCI-H647, lung adenosquamous carcinoma; 144 hours
Protocol: as §1

Panc 03.27 = assay: Cancer cell growth inhibition (CellTiter-Glo); format: cell-based; conditions: Homo sapiens, PANC-03-27; Panc 03.27, pancreatic adenocarcinoma; 144 hours
Protocol: as §1

SK-MEL-2 = assay: Cancer cell growth inhibition (CellTiter-Glo); format: cell-based; conditions: Homo sapiens; SK-MEL-2, malignant melanoma; 144 hours
Protocol: as §1

NCI-H1373 = assay: Cancer cell growth inhibition (CellTiter-Glo); format: cell-based; conditions: Homo sapiens; NCI-H1373, lung adenocarcinoma; 144 hours
Protocol: as §1

NCI-H1930 = assay: Cancer cell growth inhibition (CellTiter-Glo); format: cell-based; conditions: Homo sapiens; NCI-H1930, small cell lung carcinoma; 144 hours
Protocol: as §1

HPAF-II = assay: Cancer cell growth inhibition (CellTiter-Glo); format: cell-based; conditions: Homo sapiens, pancreatic adenocarcinoma, 144 hours
Protocol: as §1

SNU-840 = assay: Cancer cell growth inhibition (CellTiter-Glo); format: cell-based; conditions: SNU-840, malignant ovarian Brenner tumor; 144 hours
Protocol: as §1

CFPAC-1 = assay: Cancer cell growth inhibition (CellTiter-Glo); format: cell-based; conditions: Homo sapiens; CFPAC-1, pancreatic ductal adenocarcinoma; 144 hours
Protocol: as §1

KMRC-3 = assay: Cancer cell growth inhibition (CellTiter-Glo); format: cell-based; conditions: KMRC-3, clear cell renal carcinoma; 144 hours
Protocol: as §1

[1] = test system: CT26 colon cancer syngeneic model; assay: Tumor growth in murine CT26 colon cancer syngeneic model; format: in vivo, BALB/c mice; conditions: BID 125-500 mg/kg or QD 500 mg/kg for 21 days; P<0.0001 vs vehicle (Day 16)
Protocol: For the CT26 study, BALB/c mice were inoculated subcutaneously in the right flank with CT26 cells for tumor development. After 5 days of cell inoculation, mice with 36-79 mm^3 tumors were randomized into treatment groups with mean tumor volumes of 54 mm^3. […] Tumor volumes were determined by manual calipers every 2-3 days. Mean tumor volume and SEM are plotted. BID: twice a day; PO: per oral administration; QD: once a day; SC: per subcutaneous administration. […] Statistical analysis for tumor growth inhibition (TGI) was performed when at least 8 of the 10 mice were remaining in the vehicle group (Day 16). Statistical significance is calculated using two-way ANOVA followed by Bonferroni post-tests in which the treatment groups were compared to vehicle control (**** P<0.0001).

[2] = test system: NCI-H1373 lung cancer xenograft; assay: Tumor growth in human NCI-H1373 lung cancer xenograft; format: in vivo, SCID mice
Protocol: For the NCI-H1373 study, SCID mice were inoculated subcutaneously in the right flank with NCI-H1373 cells for tumor development. After 5 days of tumor growth, mice with 89-148 mm^3 tumors were randomized into treatment groups with mean tumor volumes of 121 mm^3. […] Tumor volumes were determined by manual calipers every 2-3 days. Mean tumor volume and SEM are plotted. QD: once a day; PO: per oral administration. Statistical significance is calculated using two-way ANOVA followed by Bonferroni post-tests in which the treatment groups were compared to vehicle control (****P<0.0001).

C[C@@H](COCCC(=O)N1CCN(c2ncc(C(F)(F)F)cn2)CC1)Nc1cn[nH]c(=O)c1C(F)(F)F [Compound 1, 5-[[(2S)-1-(3-oxo-3-[4-[5-(trifluoromethyl)pyrimidin-2-yl]piperazin-1-yl]propoxy)propan-2-yl]amino]-4-(trifluoromethyl)-2,3-dihydropyridazin-3-one]
100 to 1000 nM: GI50 (CFPAC-1)
significantly reduces tumor growth: Tumor growth (tumor volume) vs vehicle [1] | Tumor growth (tumor volume) vs vehicle ([2]; 62.5, 125, 250, 500 mg/kg QD PO for 28 days, P<0.0001 vs vehicle)
complete tumor regression: Tumor regression ([2]; 62.5 to 500 mg/kg once a day for 28 days, oral gavage, all dose levels)
≥ 1000 nM: GI50 (NCI-H1944) | GI50 (TE-11) | GI50 (MDA-MB-468) | GI50 (NCI-H1963) | GI50 (T84) | GI50 (SCaBER) | GI50 (YD-10B) | GI50 (NCI-H2444) | GI50 (NCI-H2009) | GI50 (KALS-1) | GI50 (AGS) | GI50 (NCI-H1437) | GI50 (MSTO-211H) | GI50 (HT-1080) | GI50 (HCC1954) | GI50 (H4) | GI50 (SK-MEL-2) | GI50 (NCI-H1930) | GI50 (HPAF-II) | GI50 (SNU-840) | GI50 (KMRC-3)
< 100 nM: GI50 (TUHR10TKB) | GI50 (NCI-H2347) | GI50 (NCI-H647) | GI50 (Panc 03.27) | GI50 (NCI-H1373)
